# Test results from patent US6391899B1, “Compounds and compositions for treating tissue ischemia” (North Shore—Long Island Jewish Research Institute, priority 1998, dated 2002).
# Like-named read-outs stand apart in the source and are kept apart here.
# Experiments:
# [1] = tested on: primary rat astroglial cell cultures; experiment: 3-aminopropanal cytotoxicity in primary astroglial cultures; format: cell-based
# glial cells (HTB14) = experiment: Apoptosis detection in glial cells (TUNEL flow cytometry, DNA fragmentation); format: cell-based, human; conditions: for development of TUNEL-positivity in 3-aminopropanal-treated glial cells: iNOS inhibitor added, cytofluorography
# Description: (§1) Additional evidence of apoptosis by flow cytometric detection of DNA strand breaks was obtained using the terminal deoxynucleotidyl taansferase mediated dUTP nick end labeling TUNEL) method (Gavrieli et al., J. Cell. Biol 119:493-501, 1992). Terminal deoxynucleotidyl transferase mediated dUTP nick end labeling (TUNEL) staining was performed on cell cultures treated with 3-aminopropanal, as indicated. Cells were harvested and collected by centrifugation at 1,500 rpm for 5 min. The pellets were fixed with 1×ORTHO Permeafix (Orthodiagnostics) at room temperature for 40 min. After washing with Dulbecco's phosphate-buffered saline containing 1% bovine serum albumin (PBS-BSA), cells were stained by the TUNEL method using the Oncor Apop Tag Direct Fluorescein kit (Oncor), in accordance with the manufacturer's instructions. A negative control was performed by preparing a reaction solution that was devoid of TdT. A Becton Dickinson flow cytometer was used for all analyses; five to ten thousand events (ungated) were collected according to a single color procedure.
# DNA samples from HTB11 or HTB14 cells (20-30×10^6 cells) were assayed for strand breakage by resuspending harvested cells (treated with 3-AP or control) in a reaction buffer containing proteinase K, and incubating overnight at 55° C. RNase was added to a final concentration of […] and the samples were incubated at 37° C. for one hour. DNA was extracted three times with phenol/chloroform and twice with chloroform and precipitated in two volumes of chilled 100% ethanol and 0.3M sodium acetate (pH 5.2). The DNA was resuspended in 50 μl of dH2O, fractionated by 1.5% agarose gel electrophoresis, and stained with SYBR Green I nucleic acid stain (Molecular Probes).
# There was also no evidence of apoptosis as measured with Annexin V, a method used to detect loss of cell membrane phospholipid asymmetry that has be associated with apoptosis. Annexin V/propidium iodide (PI) staining was performed using a kit in accordance to the manufacturer's instructions (Me Apoptosis Detection Kit, R&D Systems, Minneapolis). Cells were analyzed by flow cytometry within one hour of completion of staining. The AnnexinV-FITC and PI signals were quantitated independently according to a two-color flow cytometric procedure.
# [2] = tested on: neuronal cell cultures (HTB11); experiment: Apoptosis and cell death detection in neuronal cells (TUNEL, Annexin V, DNA electrophoresis, scatter analysis); format: cell-based, human; conditions: for induction of apoptosis in neuronal cells: HTB11, TUNEL, Annexin V, camptothecin 15 μg/ml for 20 hr
# Description: as §1
# DNA samples from HTB11 or HTB14 cells (20-30×10^6 cells) were assayed for strand breakage by resuspending harvested cells (treated with 3-AP or control) in a reaction buffer containing proteinase K, and incubating overnight at 55° C. RNase was added to a final concentration of […] and the samples were incubated at 37° C. for one hour. DNA was extracted three times with phenol/chloroform and twice with chloroform and precipitated in two volumes of chilled 100% ethanol and 0.3M sodium acetate (pH 5.2). […]
# There was also no evidence of apoptosis as measured with Annexin V, a method used to detect loss of cell membrane phospholipid asymmetry that has be associated with apoptosis. […] Cells were analyzed by flow cytometry within one hour of completion of staining. The AnnexinV-FITC and PI signals were quantitated independently according to a two-color flow cytometric procedure.
# [3] = tested on: intracerebral TNF synthesis; experiment: Intracerebral TNF synthesis after central administration; format: in vivo; conditions: centrally administered; data not illustrated
# rat brain cortex = conditions: for cell necrosis and apoptosis at the injection zone (eosin, TUNEL staining): intracortical microinjection, histology 24 hr; for protection against spermine-mediated intracortical damage, systemic administration: i.p. treatment, intracortical spermine 25 μg, infarct volume 48 hr
# [4] = tested on: glial cell cultures (HTB14); conditions: for inhibition of 3-aminopropanal-induced cell death: HTB14, 3 hours pretreatment, then 3-aminopropanal 5 hours, MTT
# [5] = tested on: glial cell cultures (HTB14); experiment: Toxicity of test compounds in parallel glial cultures incubated without 3-AP; format: cell-based, human; conditions: Table V; HTB14, parallel cultures without 3-AP
# Description: In an alternative embodiment of the screening assay of Example 3, various concentrations of the test compound (e.g. 10-1000 μM) are incubated with the indicator cells in presence of a fixed concentration fo 3-AP (e.g, 200 μM).
# [6] = tested on: glial cell cultures (HTB14); experiment: cells; conditions: Homo sapiens, read-out: 50% Effective dose (protection against 3-AP)
# [7] = tested on: cultured hippocampal neurons; experiment: NMDA neurotoxicity in cultured hippocampal neurons (trypan blue); format: cell-based
# Description: When aminoguanidine was added to primary neuronal cultures treated with N-methy-D-aspartic acid (NMDA), no attenuation of cytotoxicity was observed (Table III). […] Cultured hippocampal neurons (12-15 days in vitro) were exposed to NMDA (500 μM) for 5 min in MEM (without serum) supplemented with glutamine (100 μM) and glycine (10 μM), rinsed in Earle's Basic Salt Solution, and incubated under standard conditions for 24 hr (37° C.). Neuronal survival was assessed microscopically, by counting a sample of cell somas for uptake vs. exclusion of trypan blue. Aminoguanidine or the non-competitive excitatory amino acid receptor antagonist, MK-801, was added just prior to NMDA and in the final rinse at the concentrations shown. Data are mean±s.e. of nine wells from three replicate experiments.
# polyamine oxidase = experiment: Polyamine oxidase activity in ischemic brain homogenates (conversion of added spermine, HPLC); format: biochemical, rat; conditions: for polyamine oxidase activity in ischemic brain homogenate (FIG. 1): 1 mM added 5 minutes prior to spermine; for IC50: homogenates of ischemic brain, inhibitor added 5 minutes prior to spermine, read-out: I.C.50 for polyamine oxidase activity
# Description: To measure tissue polyamine oxidase activity, brain homogenates were prepared from the anatomic region perfused by the middle cerebral artery, and total polyamine oxidase activity determined using a method described previously (Seiler and Bolkenius, Neurochem. Res. 10:529-544, 1985; Seiler et al., Med. Biol. 59:334-346, 198 1; and […] et al., J. Neurosci. Res. 28:434-441, 1991), relying on the metabolic conversion of added spermine.
# [8] = tested on: neuronal cell cultures (HTB11); conditions: HTB11 cells, overnight incubation
# iNOS = target: T1, iNOS (Mus musculus, UniProt P29477); experiment: iNOS activity in RAW 264.7 cell lysates; format: biochemical; conditions: 1 mM
# T1 construct: iNOS activity measured in RAW 264.7 cell lysates; endogenous in cells; host or cells: RAW 264.7 cell lysates
# T1 sequence (P29477 whole entry): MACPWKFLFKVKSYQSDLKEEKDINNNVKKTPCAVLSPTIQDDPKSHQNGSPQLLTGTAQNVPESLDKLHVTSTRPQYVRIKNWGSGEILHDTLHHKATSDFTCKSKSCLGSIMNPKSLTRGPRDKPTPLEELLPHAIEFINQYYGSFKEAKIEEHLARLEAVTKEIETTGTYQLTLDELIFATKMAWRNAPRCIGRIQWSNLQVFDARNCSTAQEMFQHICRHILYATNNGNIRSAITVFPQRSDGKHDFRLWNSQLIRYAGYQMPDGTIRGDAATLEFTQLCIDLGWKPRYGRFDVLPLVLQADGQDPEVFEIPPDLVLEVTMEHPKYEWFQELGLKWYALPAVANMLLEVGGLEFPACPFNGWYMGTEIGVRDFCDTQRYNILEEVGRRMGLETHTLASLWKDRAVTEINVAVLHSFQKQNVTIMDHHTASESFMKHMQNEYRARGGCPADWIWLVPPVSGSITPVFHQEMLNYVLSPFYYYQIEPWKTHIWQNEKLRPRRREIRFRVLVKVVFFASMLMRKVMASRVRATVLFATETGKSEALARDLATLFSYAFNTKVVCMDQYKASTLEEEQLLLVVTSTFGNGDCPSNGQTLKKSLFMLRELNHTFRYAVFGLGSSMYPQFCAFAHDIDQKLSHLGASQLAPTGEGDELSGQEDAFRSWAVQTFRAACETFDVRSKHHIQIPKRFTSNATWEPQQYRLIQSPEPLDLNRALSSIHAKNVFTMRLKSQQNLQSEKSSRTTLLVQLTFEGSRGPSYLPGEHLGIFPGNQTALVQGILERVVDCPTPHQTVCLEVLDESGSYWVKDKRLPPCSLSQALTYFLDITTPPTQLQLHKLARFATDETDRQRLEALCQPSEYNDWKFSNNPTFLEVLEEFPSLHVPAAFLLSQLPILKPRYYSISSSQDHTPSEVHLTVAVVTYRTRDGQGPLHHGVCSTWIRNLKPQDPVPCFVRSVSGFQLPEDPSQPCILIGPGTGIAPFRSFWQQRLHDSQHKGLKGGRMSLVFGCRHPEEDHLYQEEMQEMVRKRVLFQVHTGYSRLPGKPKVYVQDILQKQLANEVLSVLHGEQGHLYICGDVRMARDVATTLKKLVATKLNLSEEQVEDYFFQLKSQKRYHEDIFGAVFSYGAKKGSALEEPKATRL
# focal cerebral ischemia = conditions: for volume of brain tissue infarcted vs vehicle-treated controls: i.p. beginning 15 minutes after onset of ischemia, total dose PICVA-25 and PICVA-27 200 mg/kg, PICVA-13 400 mg/kg
# [9] = with NMDA (500 μM) 5 min, MK-801 20 μM or aminoguanidine 1000 μM, 24 hr
# [10] = 25 μg in 2 μl intracortical, assessed 48 hr later
compound,measurement,setting,value
NCCC=O [3-aminopropanal],cytotoxic LD50,[1],80 ± 9 µM
same,glial cells stained TUNEL-positive,glial cells (HTB14); 13 hours of exposure to 275 μM,76%
same,apoptosis-specific DNA fragmentation,glial cells (HTB14); HTB-14 glial cells exposed to 3-aminopropanal,apoptosis-specific DNA fragmentation pattern was observed
same,induction of apoptosis in neuronal cells,[2],did not induce apoptosis
same,cell death by forward scatter/side scatter analysis,[2]; HTB11 neurons after 3-aminopropanal treatment,55.7%
same,intracerebral TNF synthesis,[3],directly stimulated
same,"cell necrosis and apoptosis at the injection zone (eosin, TUNEL staining)",rat brain cortex,both cellular necrosis and programmed cell death
same,brain damage after intracortical microinjection (TTC staining),"rat brain cortex; rat, in vivo",caused significant cytotoxicity
"NC(=O)c1cc[n+](CC(=O)c2ccccc2)cc1C(N)=O [AP21, N-(2-phenyl-2-oxoethyl)-3,4-dicarboxyamide-pyridinium bromide]",EC50,"[4]; read-out: 50% Effective dose (protection against 3-AP), Table V, HTB14, fixed 3-AP (e.g. 200 μM)",100 µM
"O=C(O)c1cc(Br)c[n+](CC(=O)c2ccccc2)c1.[Br-] [AP22, N-(2-phenyl-2-oxoethyl)-3-bromo-5-carboxypyridinium bromide]",50% Toxic dose,[5],1 mM
same,EC50,[6],199 µM
"CNC(=N)NCCC[C@H](N)C(=O)O [L-NMMA, L-N^G-monomethylarginine]",development of TUNEL-positivity in 3-aminopropanal-treated glial cells,glial cells (HTB14),failed to attenuate
C[C@]12N[C@H](Cc3ccccc31)c1ccccc12 [MK-801],Neurotoxicity (% dead),[7]; [9],8 ± 3 % dead
"CN[C@H](CC(=O)O)C(=O)O [NMDA, N-methy-D-aspartic acid]",Neurotoxicity (% dead),"[7]; NMDA (500 μM) alone, 5 min exposure, 24 hr",88 ± 4 % dead
N=C(N)NN [aminoguanidine],polyamine oxidase activity in ischemic brain homogenate (FIG. 1),polyamine oxidase,inhibited
same,IC50,polyamine oxidase,400 µM
same,development of TUNEL-positivity in 3-aminopropanal-treated glial cells,glial cells (HTB14),failed to attenuate
same,Neurotoxicity (% dead),[7]; [9],79 ± 4 % dead
same,Neurotoxicity (% dead),"[7]; without NMDA, aminoguanidine 1000 μM alone",7 ± 2 % dead
same,"protection against intracortical spermine-mediated cell death, intracortical administration",rat brain cortex; given intracortically simultaneously with spermine,conferred significant protection
same,"protection against spermine-mediated intracortical damage, systemic administration",rat brain cortex,conferred significant protection
same,effect on direct cytotoxicity of intracortical 3-aminopropanal,rat brain cortex; intracortical 3-aminopropanal,failed to significantly attenuate
same,effect on spermine-induced cell necrosis and apoptosis (histology),rat brain cortex; intracortical spermine,significantly inhibited
same,LD50 for 3-aminopropanal in the presence of the PAO inhibitor vs without,[8],similar
CC[C@@]1(O)C(=O)OCc2c1cc1n(c2=O)Cc2cc3ccccc3nc2-1 [camptothecin],induction of apoptosis in neuronal cells,[2],Apoptosis was induced
CCN(CC)CCCC(C)Nc1ccnc2cc(Cl)ccc12 (stereo not shown) [chloroquine],polyamine oxidase activity in ischemic brain homogenate (FIG. 1),polyamine oxidase,inhibited
same,IC50,polyamine oxidase,40 µM
same,iNOS activity,iNOS,11800±900 DPM/mg protein
same,"protection against spermine-mediated intracortical damage, systemic administration",rat brain cortex,conferred significant protection
same,"systemic homeostatic responses to cerebral ischemia (blood pressure, heart rate, body temperature, arterial blood gases)","focal cerebral ischemia; rat, in vivo",did not significantly alter
"O=C(C[n+]1ccsc1)c1ccccc1.[Br-] [p25, 3-(2-phenyl-2-oxoethyl)-thiazolium bromide]",volume of brain tissue infarcted vs vehicle-treated controls,focal cerebral ischemia,significantly reduced
same,mortality associated with treatment in the in vivo screening tests,focal cerebral ischemia; rats with focal cerebral ischemia,38%
"O=C(C[n+]1ccccc1)c1ccccc1.[Br-] [p27a, N-(2-phenyl-2-oxoethyl)-pyridinium bromide]",50% Toxic dose,[5],5 mM
same,mortality associated with treatment in the in vivo screening tests,"focal cerebral ischemia; Lewis, rat, in vivo",25%
same,volume of brain tissue infarcted vs vehicle-treated controls,focal cerebral ischemia,significantly reduced
same,EC50,[6],425 µM
NCCCCN [putrescine],brain damage after intracortical microinjection (TTC staining),rat brain cortex; [10],cell death was not observed
same,"cell necrosis and apoptosis at the injection zone (eosin, TUNEL staining)",rat brain cortex,not observed
NCCCCNCCCN [spermidine],brain damage after intracortical microinjection (TTC staining),rat brain cortex; [10],brain tissue damage
NCCCNCCCCNCCCN [spermine],"cell necrosis and apoptosis at the injection zone (eosin, TUNEL staining)",rat brain cortex,caused cell necrosis and apoptosis
same,brain damage after intracortical microinjection (TTC staining),"rat brain cortex; rat, in vivo",brain tissue damage
Ac-DEVD-CHO,inhibition of 3-aminopropanal-induced cell death,[4],not
Ac-YVAD-CMK,inhibition of 3-aminopropanal-induced cell death,[4],conferred dose-dependent inhibition
